Test results taken from paper PMC7407272, “Induction of Lysosome Membrane Permeabilization as a Therapeutic Strategy to Target Pancreatic Cancer Stem Cells” (Cancers, 2020).

Experiments:
[1] = target: T1, IKK-beta (Homo sapiens, UniProt O14920); assay: KINOMEscan; type: binding; details: read-out: % Ctrl
T1 construct: purchased DiscoveRx KINOMEscan

[2] = target: T2, ULK3 (Homo sapiens, UniProt Q6PHR2); assay: KINOMEscan; type: binding; details: read-out: % Ctrl
T2 construct: purchased DiscoveRx KINOMEscan
T2 sequence (Q6PHR2 whole entry): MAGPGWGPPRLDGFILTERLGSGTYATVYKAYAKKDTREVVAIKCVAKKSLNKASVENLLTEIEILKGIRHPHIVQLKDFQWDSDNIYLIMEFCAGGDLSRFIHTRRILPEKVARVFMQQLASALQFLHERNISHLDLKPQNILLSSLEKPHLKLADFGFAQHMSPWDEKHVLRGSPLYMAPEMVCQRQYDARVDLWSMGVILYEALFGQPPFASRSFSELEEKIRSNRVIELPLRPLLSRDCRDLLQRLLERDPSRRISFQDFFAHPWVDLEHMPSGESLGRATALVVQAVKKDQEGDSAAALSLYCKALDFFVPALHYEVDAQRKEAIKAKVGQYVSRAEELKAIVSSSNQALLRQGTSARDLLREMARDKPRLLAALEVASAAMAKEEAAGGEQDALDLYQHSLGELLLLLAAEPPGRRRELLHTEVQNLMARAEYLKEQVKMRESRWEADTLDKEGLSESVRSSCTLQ

[3] = target: T3, STK33 (Homo sapiens, UniProt Q9BYT3); assay: KINOMEscan; type: binding; details: read-out: % Ctrl
T3 construct: purchased DiscoveRx KINOMEscan

[4] = target: T4, LATS1 (Homo sapiens, UniProt O95835); assay: KINOMEscan; type: binding; details: read-out: % Ctrl
T4 construct: purchased DiscoveRx KINOMEscan

[5] = target: T5, DYRK1A (Homo sapiens, UniProt Q13627); assay: KINOMEscan; type: binding; details: read-out: % Ctrl
T5 construct: purchased DiscoveRx KINOMEscan

[6] = target: T6, ANKK1 (Homo sapiens, UniProt Q8NFD2); assay: KINOMEscan; type: binding; details: read-out: % Ctrl
T6 construct: purchased DiscoveRx KINOMEscan

[7] = target: T7, CLK2 (Homo sapiens, UniProt P49760); assay: KINOMEscan; type: binding; details: read-out: % Ctrl
T7 construct: purchased DiscoveRx KINOMEscan
T7 sequence (P49760 whole entry): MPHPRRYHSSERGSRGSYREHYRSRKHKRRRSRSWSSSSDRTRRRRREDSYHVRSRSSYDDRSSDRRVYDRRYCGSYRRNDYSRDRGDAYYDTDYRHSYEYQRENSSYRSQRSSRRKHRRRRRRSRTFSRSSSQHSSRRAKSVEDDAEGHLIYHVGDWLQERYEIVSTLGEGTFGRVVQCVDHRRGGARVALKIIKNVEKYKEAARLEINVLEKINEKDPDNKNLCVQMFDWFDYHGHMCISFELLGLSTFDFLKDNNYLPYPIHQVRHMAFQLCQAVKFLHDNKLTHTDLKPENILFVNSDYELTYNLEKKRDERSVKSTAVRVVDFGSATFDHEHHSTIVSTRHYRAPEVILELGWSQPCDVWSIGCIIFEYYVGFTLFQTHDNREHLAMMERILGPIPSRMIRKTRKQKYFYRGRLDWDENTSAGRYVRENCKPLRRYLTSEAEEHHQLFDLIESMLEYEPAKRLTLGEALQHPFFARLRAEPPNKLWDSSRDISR

[8] = target: T8, MKNK1 (Homo sapiens, UniProt Q9BUB5); assay: KINOMEscan; type: binding; details: read-out: % Ctrl
T8 construct: purchased DiscoveRx KINOMEscan

[9] = target: T9, ERK1 (Homo sapiens, UniProt P27361); assay: KINOMEscan; type: binding; details: read-out: % Ctrl
T9 construct: purchased DiscoveRx KINOMEscan

[10] = target: T10, CSNK1E (Homo sapiens, UniProt P49674); assay: KINOMEscan; type: binding; details: read-out: % Ctrl
T10 construct: purchased DiscoveRx KINOMEscan
T10 sequence (P49674 whole entry): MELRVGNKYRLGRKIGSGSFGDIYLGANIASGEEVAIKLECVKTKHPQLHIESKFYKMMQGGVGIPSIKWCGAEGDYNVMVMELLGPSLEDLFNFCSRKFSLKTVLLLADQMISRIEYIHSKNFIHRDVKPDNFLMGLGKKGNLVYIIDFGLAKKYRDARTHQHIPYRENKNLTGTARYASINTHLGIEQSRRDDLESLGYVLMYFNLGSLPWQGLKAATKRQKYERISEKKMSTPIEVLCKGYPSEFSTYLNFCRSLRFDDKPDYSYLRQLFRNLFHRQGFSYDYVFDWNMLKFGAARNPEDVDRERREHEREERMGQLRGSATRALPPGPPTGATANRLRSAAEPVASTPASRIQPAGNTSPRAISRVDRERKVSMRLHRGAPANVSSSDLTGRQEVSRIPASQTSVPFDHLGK

[11] = target: T11, NEK4 (Homo sapiens, UniProt P51957); assay: KINOMEscan; type: binding; details: read-out: % Ctrl
T11 construct: purchased DiscoveRx KINOMEscan
T11 sequence (P51957 whole entry): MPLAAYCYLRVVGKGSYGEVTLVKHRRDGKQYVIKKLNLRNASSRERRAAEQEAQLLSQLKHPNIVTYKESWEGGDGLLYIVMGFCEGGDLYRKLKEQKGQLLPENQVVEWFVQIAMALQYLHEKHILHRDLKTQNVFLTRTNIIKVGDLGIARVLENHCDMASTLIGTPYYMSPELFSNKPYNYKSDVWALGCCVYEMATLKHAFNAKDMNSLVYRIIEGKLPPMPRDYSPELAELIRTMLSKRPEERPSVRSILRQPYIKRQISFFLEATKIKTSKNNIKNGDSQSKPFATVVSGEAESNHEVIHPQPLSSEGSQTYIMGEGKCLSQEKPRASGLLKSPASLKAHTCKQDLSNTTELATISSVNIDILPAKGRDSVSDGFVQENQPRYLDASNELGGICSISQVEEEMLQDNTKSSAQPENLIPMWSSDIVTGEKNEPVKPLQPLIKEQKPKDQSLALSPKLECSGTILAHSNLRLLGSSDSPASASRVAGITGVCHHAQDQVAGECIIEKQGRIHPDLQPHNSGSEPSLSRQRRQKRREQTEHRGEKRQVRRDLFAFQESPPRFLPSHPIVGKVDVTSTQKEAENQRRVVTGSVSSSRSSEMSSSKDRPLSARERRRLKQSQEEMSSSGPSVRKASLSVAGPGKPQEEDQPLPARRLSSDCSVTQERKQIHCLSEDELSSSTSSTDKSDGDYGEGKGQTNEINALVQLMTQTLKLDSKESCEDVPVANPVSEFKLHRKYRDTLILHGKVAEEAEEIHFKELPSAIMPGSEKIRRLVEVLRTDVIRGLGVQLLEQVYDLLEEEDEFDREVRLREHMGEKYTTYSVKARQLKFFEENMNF

[12] = target: T12, PIK3CD (Homo sapiens, UniProt O00329); assay: KINOMEscan; type: binding; details: read-out: % Ctrl
T12 construct: purchased DiscoveRx KINOMEscan
T12 sequence (O00329 whole entry): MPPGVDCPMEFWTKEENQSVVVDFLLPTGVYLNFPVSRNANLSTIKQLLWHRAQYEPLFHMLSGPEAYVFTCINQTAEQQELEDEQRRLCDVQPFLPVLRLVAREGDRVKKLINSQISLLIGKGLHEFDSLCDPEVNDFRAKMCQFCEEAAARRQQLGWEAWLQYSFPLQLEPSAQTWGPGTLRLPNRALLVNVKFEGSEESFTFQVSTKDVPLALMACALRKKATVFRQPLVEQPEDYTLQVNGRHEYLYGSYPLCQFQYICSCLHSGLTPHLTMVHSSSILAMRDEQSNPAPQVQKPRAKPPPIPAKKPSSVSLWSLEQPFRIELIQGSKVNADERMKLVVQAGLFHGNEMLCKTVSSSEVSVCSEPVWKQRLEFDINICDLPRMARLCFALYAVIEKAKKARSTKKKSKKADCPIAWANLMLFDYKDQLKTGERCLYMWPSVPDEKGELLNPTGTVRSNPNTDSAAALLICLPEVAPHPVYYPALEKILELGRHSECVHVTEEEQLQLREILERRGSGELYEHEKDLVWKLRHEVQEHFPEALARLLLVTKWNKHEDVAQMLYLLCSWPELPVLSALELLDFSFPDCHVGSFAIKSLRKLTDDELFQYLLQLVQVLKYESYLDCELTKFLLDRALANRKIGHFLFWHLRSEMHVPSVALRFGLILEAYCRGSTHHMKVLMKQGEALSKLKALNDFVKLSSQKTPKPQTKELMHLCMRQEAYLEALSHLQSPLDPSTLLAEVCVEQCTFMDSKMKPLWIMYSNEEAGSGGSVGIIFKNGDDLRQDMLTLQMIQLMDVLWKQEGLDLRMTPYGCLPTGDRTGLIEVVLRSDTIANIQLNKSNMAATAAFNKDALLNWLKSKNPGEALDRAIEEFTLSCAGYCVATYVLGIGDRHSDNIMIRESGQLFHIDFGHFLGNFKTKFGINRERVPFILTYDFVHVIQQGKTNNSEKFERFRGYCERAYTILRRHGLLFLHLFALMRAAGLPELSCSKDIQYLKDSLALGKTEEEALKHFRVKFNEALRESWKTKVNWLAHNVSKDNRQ

[13] = target: T13, ABL1(T315I)-nonP (Homo sapiens, UniProt P00519, T315I); assay: KINOMEscan; type: binding; details: read-out: % Ctrl
T13 construct: purchased DiscoveRx KINOMEscan

[14] = target: T14, PIK3CA(Q546K) (Homo sapiens, UniProt P42336, Q546K); assay: KINOMEscan; type: binding; details: read-out: % Ctrl
T14 construct: purchased DiscoveRx KINOMEscan
T14 sequence (P42336 whole entry Q546K): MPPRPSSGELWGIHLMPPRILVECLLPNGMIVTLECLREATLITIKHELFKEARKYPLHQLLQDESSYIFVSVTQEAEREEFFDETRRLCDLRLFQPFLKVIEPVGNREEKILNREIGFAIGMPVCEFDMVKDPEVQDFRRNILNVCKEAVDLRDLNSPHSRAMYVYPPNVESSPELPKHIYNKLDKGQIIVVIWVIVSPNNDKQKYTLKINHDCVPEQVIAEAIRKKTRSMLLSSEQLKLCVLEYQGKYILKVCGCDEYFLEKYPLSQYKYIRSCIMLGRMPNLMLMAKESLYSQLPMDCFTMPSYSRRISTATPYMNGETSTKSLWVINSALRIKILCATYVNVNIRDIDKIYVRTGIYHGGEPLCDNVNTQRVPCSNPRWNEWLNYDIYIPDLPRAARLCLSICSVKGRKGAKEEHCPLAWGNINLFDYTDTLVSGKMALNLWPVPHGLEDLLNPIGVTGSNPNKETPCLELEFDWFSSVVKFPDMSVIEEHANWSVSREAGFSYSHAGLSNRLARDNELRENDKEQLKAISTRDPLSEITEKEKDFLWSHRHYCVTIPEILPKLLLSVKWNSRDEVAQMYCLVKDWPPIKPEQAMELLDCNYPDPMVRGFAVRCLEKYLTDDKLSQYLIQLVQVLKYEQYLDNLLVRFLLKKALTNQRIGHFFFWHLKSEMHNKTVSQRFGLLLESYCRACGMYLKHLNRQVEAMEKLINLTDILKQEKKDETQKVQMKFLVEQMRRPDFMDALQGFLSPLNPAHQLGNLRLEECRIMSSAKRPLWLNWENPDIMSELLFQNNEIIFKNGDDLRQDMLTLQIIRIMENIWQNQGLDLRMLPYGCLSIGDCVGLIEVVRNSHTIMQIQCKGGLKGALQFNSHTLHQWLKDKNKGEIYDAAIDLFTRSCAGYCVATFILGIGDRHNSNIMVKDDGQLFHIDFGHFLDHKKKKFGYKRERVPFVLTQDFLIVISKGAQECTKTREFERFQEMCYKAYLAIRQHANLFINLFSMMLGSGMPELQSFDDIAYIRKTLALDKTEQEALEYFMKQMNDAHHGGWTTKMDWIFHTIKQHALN

[15] = target: T15, SIK2 (Homo sapiens, UniProt Q9H0K1); assay: KINOMEscan; type: binding; details: read-out: % Ctrl
T15 construct: purchased DiscoveRx KINOMEscan

[16] = target: T16, GSK3B (Homo sapiens, UniProt P49841); assay: KINOMEscan; type: binding; details: read-out: % Ctrl
T16 construct: purchased DiscoveRx KINOMEscan
T16 sequence (P49841 whole entry): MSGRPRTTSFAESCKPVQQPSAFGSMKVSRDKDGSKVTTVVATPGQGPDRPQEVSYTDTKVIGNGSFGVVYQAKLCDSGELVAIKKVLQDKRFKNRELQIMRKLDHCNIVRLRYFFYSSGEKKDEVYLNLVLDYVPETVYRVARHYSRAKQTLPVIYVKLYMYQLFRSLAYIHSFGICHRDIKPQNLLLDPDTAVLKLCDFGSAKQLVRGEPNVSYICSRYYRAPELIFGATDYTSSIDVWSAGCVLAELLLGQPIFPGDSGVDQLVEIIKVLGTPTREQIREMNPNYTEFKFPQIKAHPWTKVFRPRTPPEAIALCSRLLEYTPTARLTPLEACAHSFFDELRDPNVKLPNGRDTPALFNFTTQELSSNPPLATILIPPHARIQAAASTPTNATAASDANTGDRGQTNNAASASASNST

[17] = target: T17, PCTK2 (Homo sapiens, UniProt Q00537); assay: KINOMEscan; type: binding; details: read-out: % Ctrl
T17 construct: purchased DiscoveRx KINOMEscan

[18] = system: PDAC1 xenografts; assay: PDX treatment in nude mice; type: in vivo, NU-Foxn1nu nude mice; details: PDAC1 PDX; GEM 125 mg/kg i.p. biweekly, SIR 30 mg/kg oral gavage; 23 days
Method: (§1) Cells were analyzed with a 4-laser Attune NxT Acoustic Cytometer (ThermoFisher Scientific). Cells and digested tumors (as described in [41]) were resuspended in FLOW buffer (1X PBS; 3 mM EDTA (v/v); 3% FBS (v/v)), and the following fluorescently-tagged antibodies were used to label cells for 30 min at 4 °C: Mouse monoclonal anti-human CD133-PE (1:20, Cat no. 130-110-962, Miltenyi, Bergisch Gladbach, Germany), Mouse monoclonal anti-human CD133-APC (1:20, Cat no. 130-111-080, Miltenyi, Bergisch Gladbach, Germany), mouse monoclonal anti-human C-X-C chemokine receptor type 4- Phycoerythrin (CXCR4-PE) (1:20, Cat no. 130-117-354, Miltenyi, Bergisch Gladbach, Germany), or mouse monoclonal anti-human Epithelial cell adhesion molecule-fluorescein isothiocyanate (EpCAM-FITC) (1:20, Cat no. 130-111-115, Miltenyi, Bergisch Gladbach, Germany). Autofluorescent cells were excited with blue laser 488nm and selected as the intersection with the filters 530/40 and 580/30 as previously described. For lysosomes quantification, Acridine Orange (AO) (A1301, Thermo Fisher Scientific, Waltham, MA, USA) or Lysotracker Deep Red (DR) (L12492, Molecular probes, Life Technologies, Waltham, MA, USA) were used. AO fluorescence was assessed with two combinations of excitation and emission spectra: BL1 […] BL3 (Ex488/Em695/40, equal to the far-red channel (>670 nm)) Lysotracker DR fluorescence was assessed with RL1 (Ex638/Em670/14). Bafilomycin A1 (100 nM, Calbiochem, San Diego, CA, USA) was included as a positive control for lysosome disruption. For Annexin V staining, floating and attached cells were pooled and resuspended in 1× AnnexinV staining buffer containing AnnexinV-APC diluted 1:20 (Biotium, Freemont, CA, USA) and incubated for 20 min at room temperature prior to flow cytometric analysis. For all assays, DAPI was used to mark and exclude dead cells, and data were analyzed using the software FlowJo v9.3 (Tree Star Inc., Ashland, OR, USA).
(§2) Female 6- to 8-week-old NU-Foxn1nu nude mice (Envigo, Spain) were subcutaneously injected with control or pre-treated 1 × 10^4 PDAC cells in 50 µL of Matrigel^TM (Corning). Tumor growth was monitored bi-weekly for up to 10 weeks. For Siramesine experiments, mice were subcutaneously implanted with PDAC1 and PDAC3 PDXs. After 4 weeks of tumor growth, mice were randomized into treatment groups (5 mice per group). Mice were treated with Siramesine twice a week (30 mg/kg by oral gavage formulated in 0.5% methylcellulose 15 cP in 0.9% NaCl solution) for ~4 weeks. Gemcitabine (GEMZAR®, Eli Lilly, Indianapolis, IN, USA) was administered twice a week (125 mg/kg i.p.) for ~4 weeks. Tumor volumes (mm^3) were determined twice per week using a digital caliper. Mice were sacrificed at 24 days post treatment initiation and tumors were extracted and analyzed by flow cytometry as described above. For second generation tumor formation, 1000 and 100 cells of indicated treatment groups were resuspended in Matrigel ^TM and injected subcutaneously in recipient NU-Foxn1nu nude mice and tumor formation was monitored for 10 weeks. Mice were housed according to institutional guidelines and all experiments were performed in compliance with the institutional guidelines for the welfare of experimental animals approved by the Universidad Autónoma de Madrid Ethics Committee (CEI 60-1057-A068) or by the Instituto de Salud Carlos III Ethics Committee (CBA12_2014-v3) and La Comunidad de Madrid (PROEX 335/14 or PROEX 53/14) and in accordance with the guidelines for Ethical Conduct in the Care and Use of Animals as stated in The International Guiding Principles for Biomedical Research involving Animals, developed by the Council for International Organizations of Medical Sciences (CIOMS).

[19] = system: PDAC3 xenografts; assay: PDX treatment in nude mice; type: in vivo, NU-Foxn1nu nude mice
Method: as §1, §2

`CN1CCC(CNc2ccc3ncc(C(=O)Nc4cccc(OC(F)(F)F)c4)n3n2)CC1` [Cpd 2] showed a remaining binding at 1 µM [1] of 100%, a remaining binding at 1 µM [2] of 78% and a remaining binding at 1 µM [3] of 100%. For the same compound, the remaining binding at 1 µM [4] was 100%, the remaining binding at 1 µM [5] was 100% and the remaining binding at 1 µM [6] was 94%. The remaining binding at 1 µM [7] was 81%, the remaining binding at 1 µM [8] was 86% and the remaining binding at 1 µM [9] was 100%. It also gave a remaining binding at 1 µM [10] of 95%, a remaining binding at 1 µM [11] of 100% and a remaining binding at 1 µM [12] of 85%. For the same compound, the remaining binding at 1 µM [13] was 70%, the remaining binding at 1 µM [14] was 89% and the remaining binding at 1 µM [15] was 97%. It also gave a remaining binding at 1 µM [16] of 97% and a remaining binding at 1 µM [17] of 100%.

With `Fc1ccc(-n2cc(CCCCN3CCC4(CC3)OCc3ccccc34)c3ccccc32)cc1` [siramesine] the “tumor volume versus control” value [18] was “no significant differences”, the “tumor volume versus control” value ([19]; PDAC3 PDX, GEM 125 mg/kg i.p. biweekly, SIR 30 mg/kg oral gavage, 23 days) was “no significant differences” and the “percentage of CD133+ and CD133+/CXCR4+ in tumors” value ([19]; PDAC3 tumors, 30 mg/kg) was “reduce”.
